In PMC3024981, “It Takes Two to Tango: Defining an Essential Second Active Site in Pyridoxal 5′-Phosphate Synthase” (PLoS ONE, 2011):

Biological target: T1, Pdx1 (Bacillus subtilis, UniProt P37527)
T1 construct: gene pdxS; full-length Pdx1 alone, native (untagged) from pETBsPdx1; dodecamer
Assay: ESI-MS (+[…] Da after NaBH4 reduction), tryptic peptide MALDI-TOF/TOF
Type: biochemical
Settings: covalent Schiff base at K149 (P2 site); PLP made de novo from R5P, DL-G3P and ammonium sulfate

T1 sequence (P37527 2-294): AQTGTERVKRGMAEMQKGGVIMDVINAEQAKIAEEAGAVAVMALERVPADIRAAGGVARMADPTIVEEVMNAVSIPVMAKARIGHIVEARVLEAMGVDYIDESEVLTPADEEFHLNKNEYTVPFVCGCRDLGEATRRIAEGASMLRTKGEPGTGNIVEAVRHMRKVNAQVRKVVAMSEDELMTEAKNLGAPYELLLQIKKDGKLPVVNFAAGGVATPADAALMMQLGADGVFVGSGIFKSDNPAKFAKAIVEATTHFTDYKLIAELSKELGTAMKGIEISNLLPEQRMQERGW

SMILES: Cc1ncc(COP(=O)(O)O)c(C=O)c1O [pyridoxal 5′-phosphate]
- ESI-MS (+231 Da after NaBH4 reduction), tryptic peptide MALDI-TOF/TOF: demonstrate that PLP is covalently bound to Pdx1
